Consider ten compounds from patent US6069240A, “Cloning by complementation and related processes” (priority 1998, dated 2000).

“Also recorded” adds a separate entry of the source. Where two headings read alike, the source gives them in different places.

In assay [1] the test system is dnc (plasmid pADDROSF, cDNA truncated at 5' end). Kind of assay: Hydrolysis of 3H cAMP by yeast extracts (Dunce-like PDE clones). The class given is biochemical, Drosophila. The following applies: 1 μM 3H cAMP, SD in parentheses.
Description: (§1) Values were determined in duplicate from three separate cell pellets. Each value for the Km represents the average of six determinations, with the standard deviation shown in parentheses. The specific activity at Vmax is reported as the range of determinations for the six experiments.
(§2) The IC50 was determined by fitting the data to either a four-parameter model, or a two-parameter model, as described above. Wherever possible, the four-parameter model was used, because it could provide an accurate fit to inhibitor curves that spanned a wide range of concentrations. Data sets that could not be fitted to the four-parameter model were fitted to the two-parameter model.
In assay [2] the target is T1, dnc (plasmid pADDROSC, full-length) (Drosophila melanogaster, UniProt P12252).
T1 sequence (P12252 1-701 isoform P12252-3): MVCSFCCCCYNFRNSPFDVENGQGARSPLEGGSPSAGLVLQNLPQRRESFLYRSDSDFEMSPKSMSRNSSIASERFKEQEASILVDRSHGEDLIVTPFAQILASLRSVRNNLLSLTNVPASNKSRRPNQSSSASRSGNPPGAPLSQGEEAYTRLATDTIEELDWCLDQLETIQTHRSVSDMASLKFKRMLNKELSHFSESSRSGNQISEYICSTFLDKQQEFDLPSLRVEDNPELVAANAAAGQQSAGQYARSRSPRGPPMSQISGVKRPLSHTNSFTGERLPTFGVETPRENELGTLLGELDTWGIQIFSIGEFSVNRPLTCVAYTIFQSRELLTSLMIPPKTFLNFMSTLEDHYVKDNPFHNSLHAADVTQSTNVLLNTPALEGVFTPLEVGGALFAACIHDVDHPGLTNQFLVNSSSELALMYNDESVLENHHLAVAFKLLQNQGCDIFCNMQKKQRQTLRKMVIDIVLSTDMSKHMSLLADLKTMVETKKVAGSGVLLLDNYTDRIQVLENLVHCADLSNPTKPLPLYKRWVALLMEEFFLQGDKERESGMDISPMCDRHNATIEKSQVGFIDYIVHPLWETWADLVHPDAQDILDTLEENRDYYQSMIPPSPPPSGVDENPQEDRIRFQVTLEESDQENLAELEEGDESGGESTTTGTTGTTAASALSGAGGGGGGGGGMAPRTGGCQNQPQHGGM
In words: biochemical.
Description: as §1, §2

The test system of assay [3] is human dunce-like PDEs (three human clones). In words: Inhibition and kinetics of the human dunce-like PDEs. The format is biochemical. To be noted: for IC50s fold higher than for their specific PDE classes: compared with literature values for the inhibitors' own PDE classes; for IC50: range over the human clones, read-out: IC50s for the human clones.
Description: as §1, §2
Assay [4] has as its system DPDE2 (plasmid pADH46R, cDNA truncated at 5' end). To be noted: 1 μM 3H cAMP, SD in parentheses.
Description: as §1, §2
In assay [5] the test system is DPDE4 (plasmid pADH72, cDNA truncated at 5' end). To be noted: 1 μM 3H cAMP, SD in parentheses.
Description: as §1, §2
Assay [6] deals with DPDE3 (plasmid pADH43, cDNA truncated at 5' end). The following applies: 1 μM 3H cAMP, SD in parentheses.
Description: as §1, §2
The target of assay [7] is T2, pRATDPD gene product (rat DPD cAMP phosphodiesterase) (Rattus norvegicus, UniProt P14646).
T2 sequence (P14646 220-736): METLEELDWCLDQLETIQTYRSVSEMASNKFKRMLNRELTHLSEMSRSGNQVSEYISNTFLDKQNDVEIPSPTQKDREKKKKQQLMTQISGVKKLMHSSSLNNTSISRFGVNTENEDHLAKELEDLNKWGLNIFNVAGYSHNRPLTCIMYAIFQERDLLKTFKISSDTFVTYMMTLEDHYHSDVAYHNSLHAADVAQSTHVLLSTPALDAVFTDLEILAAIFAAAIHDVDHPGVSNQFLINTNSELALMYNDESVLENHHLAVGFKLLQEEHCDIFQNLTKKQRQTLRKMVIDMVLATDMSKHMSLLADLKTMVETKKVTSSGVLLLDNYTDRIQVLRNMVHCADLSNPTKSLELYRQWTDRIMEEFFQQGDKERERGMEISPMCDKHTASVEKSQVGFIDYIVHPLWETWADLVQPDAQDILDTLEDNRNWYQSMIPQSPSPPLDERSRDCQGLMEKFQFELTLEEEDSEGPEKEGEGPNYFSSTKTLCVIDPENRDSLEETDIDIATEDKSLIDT
The following applies: cGMP 100 fold over substrate concentration (5 μM cAMP, cGMP up to 500 μM).
Description: Yeast cells were grown at 30° C. for 36 hours in one liter cultures of synthetic media (SC-leucine). Cells were harvested and washed with buffer C (20 mM MES (pH 6.2), 0.1 mM MgCl2, 0.1 mM EGTA, 1 mM β-mercaptoethanol), were resuspended in 30 ml buffer C with 50 μl 1 M PMSF, and were disrupted with a French press. The extracts were centrifuged at 1,600×g for 10 min and the supernatants were spun at 18,000×g for 90 min (4° C.). The supernatant was assayed for phosphodiesterase activity as in Collicelli et al., supra. All the reactions contained Tris-HCl (pH7.5) (100 mM), cell extract (50 μg protein/ml), 5'-nucleotidase (Sigma, 20 ng/ml) and 10 mM Mg^2+ (unless otherwise stated) and the indicated cyclic nucleotide concentrations. […] The assay conditions were varied to ascertain the cation preferences of the enzyme and to determine the ability of calcium and calmodulin to stimulate its activity.

Assay [8] has as its target T3, DPDE4 (plasmid pADH72C) (Homo sapiens, UniProt Q07343). Kind of assay: biochemical.
Description: (§3) The IC50 was determined by fitting the data to either a four-parameter model, or a two-parameter model, as described above. Wherever possible, the four-parameter model was used, because it could provide an accurate fit to inhibitor curves that spanned a wide range of concentrations. Data sets that could not be fitted to the four-parameter model were fitted to the two-parameter model. […] The values in parentheses represent the standard deviation of the mean for each experiment.
The target in assay [9] is pJC44x human cyclic AMP phosphodiesterase. Kind of assay: Phosphodiesterase activity of 10DAB yeast extract expressing human cDNA (kinetics, inhibitor sensitivity). The following applies: read-out: EC50 (inhibitor concentration at 50% enzyme velocity); 1.0 μM cAMP.
Assay [10] has as its target pL22 Met (pTM22-like) human cyclic AMP phosphodiesterase (Homo sapiens, UniProt Q13946). The assay is described as above.
The target in assay [11] is T4, rat DPD phosphodiesterase (Rattus norvegicus, UniProt P14646).
T4 construct: A large open reading frame of 562 codons was found; The first ATG appears at codon 46; made in house; host or cells: S. cerevisiae 10DAB (pde1-, pde2-), crude extract, vector pADNS
T4 sequence (P14646 220-736): T2 sequence (P14646 220-736)
In words: Inhibition of phosphodiesterases by chemicals, cell free extracts of 10DAB yeast. The format is biochemical.
Description: (§4) To test the efficiency of known inhibitory compounds, cell free extracts were made. Yeast cells deficient in endogenous phosphodiesterase (10DAB), and expressing the rat DPD or yeast PDE2 genes from the described expression vector, were used. One liter cultures were harvested, washed in buffer C (20 mM MES(pH 6.2)/0.1 mM MgCl2 /0. 1 mM EGTA/1 mM 2-mercaptoethanol), resuspended in buffer C containing 1.5 mM phenylmethylsulfonyl fluoride (PMSF), and disrupted in a French press at 4° C. Cell extracts were clarified at 100×g for 10 minutes and at 18000×g for 90 minutes.

The subject of assay [12] is 10DAB cells expressing the cDNA of pRATDPD. Kind of assay: Heat shock sensitivity of yeast expressing rat DPD. The format is cell-based, S. cerevisiae. To be noted: 100 μM for 40 minutes, then 50° C. for 30 minutes. The procedure:
10DAB cells, which are phosphodiesterase deficient, are sensitive to heat shock. As already discussed, when these cells acquire the capacity to express the cDNA of pRATDPD, they become resistant to heat shock. 10DAB cells expressing the cDNA of pRATDPD were maintained in rich medium (YPD) for three days at stationary phase. […] Control cultures were not treated with any inhibitor. These cultures were then heat shocked in glass tubes at 50° C. […] for 30 minutes. One microliter of each culture was plated.

Assay [13] deals with yeast containing RAS2^va119 expressing the rat DPD gene. In words: Heat shock phenotype reversal screen. The format is cell-based. To be noted: resistant cells incubated in agent. An excerpt:
The second type of pharmacological screen is applicable even when the mammalian gene encodes a protein of undetermined function, and, thus, cannot be assayed by a biochemical activity. In this method, agents to be tested are applied or introduced directly to the genetically altered microbial host expressing the mammalian protein. Agents capable of inhibiting the mammalian gene or gene product are identified by their ability to reverse the phenotype originally corrected by expression of the mammalian protein in the altered host.
This procedure has been used for mammalian cDNAs encoding cyclic nucleotide phosphodiesterases and a yeast containing RAS2^va119 as the host strain. When the rat DPD gene is introduced into the heat shock sensitive host and expressed, the host strain becomes heat shock resistant. […] This same approach can be applied to assess other genes.

The subject of assay [14] is Drosophila dnc encoded PDEs. In words: Inhibition and kinetics of dnc encoded PDEs. The class given is biochemical. The following applies: dnc gene product.
Description: as §3
The subject of assay [15] is cAMP phosphodiesterases encoded by cDNAs of pTM3, pTM72, pJC44x and pRATDPD. In words: Biochemical analysis of cell lysates.
Assay [16] deals with yeast strain 10DAB transformed with pAD72 (human family IV phosphodiesterase). In words: Whole cell screen: heat treatment viability of transformed yeast. To be noted: 2 h at 30° C. then 50° C. for 30 min; for effect on viable cells of the culture after heat treatment (in words): concentrations up to 100 μM.
Description: The following procedure was applied to the screening of whole transformed host cells. […] Aliquots of this culture (300 μl) were taken and mixed with 4.8 μl 10% DMSO or 10% DMSO containing an appropriate concentration of phosphodiesterase inhibitor. The treated cultures were then incubated for two hours at 30° C., after which two 3 μl aliquots were removed and transferred to an SC-leucine agar plate. Then, a 100 μl aliquot was removed from the treated cultures and transferred to a glass 12×75 mm test tube and the test tubes were incubated at 50° C. in a mineral oil-containing hot block for 30 min. The test tubes were removed from the hot block and placed at room temperature. Two 3 μl aliquots were removed and transferred to an SC-leucine plate. The agar plates were then incubated at 30° C. and examined at various times to evaluate growth.
Another assay concerns the target yeast PDE2 (Saccharomyces cerevisiae, UniProt P06776). Kind of assay: Inhibition of phosphodiesterases by chemicals, cell free extracts of 10DAB yeast.
Assay [17] concerns the target T3, DPDE4 (plasmid pADH72C). To be noted: 1 μM 3H cAMP, SD in parentheses.
Description: as §3

Chain of pL22 Met (pTM22-like) human cyclic AMP phosphodiesterase (Q13946 with tags, fused parts or gaps): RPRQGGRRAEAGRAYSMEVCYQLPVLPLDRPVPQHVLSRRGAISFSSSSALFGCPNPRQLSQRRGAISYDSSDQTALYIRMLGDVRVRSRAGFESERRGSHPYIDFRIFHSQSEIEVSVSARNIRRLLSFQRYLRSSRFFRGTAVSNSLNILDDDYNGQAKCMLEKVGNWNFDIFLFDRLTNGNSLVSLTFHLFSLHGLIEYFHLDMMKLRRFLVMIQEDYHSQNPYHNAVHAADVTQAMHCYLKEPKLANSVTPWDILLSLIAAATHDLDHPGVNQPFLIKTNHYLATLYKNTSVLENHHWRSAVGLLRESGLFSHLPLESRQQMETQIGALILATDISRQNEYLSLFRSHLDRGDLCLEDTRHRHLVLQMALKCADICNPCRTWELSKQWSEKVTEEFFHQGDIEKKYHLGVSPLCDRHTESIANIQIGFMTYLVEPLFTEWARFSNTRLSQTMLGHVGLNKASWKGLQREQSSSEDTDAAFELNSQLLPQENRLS
T3 sequence (Q07343 whole entry): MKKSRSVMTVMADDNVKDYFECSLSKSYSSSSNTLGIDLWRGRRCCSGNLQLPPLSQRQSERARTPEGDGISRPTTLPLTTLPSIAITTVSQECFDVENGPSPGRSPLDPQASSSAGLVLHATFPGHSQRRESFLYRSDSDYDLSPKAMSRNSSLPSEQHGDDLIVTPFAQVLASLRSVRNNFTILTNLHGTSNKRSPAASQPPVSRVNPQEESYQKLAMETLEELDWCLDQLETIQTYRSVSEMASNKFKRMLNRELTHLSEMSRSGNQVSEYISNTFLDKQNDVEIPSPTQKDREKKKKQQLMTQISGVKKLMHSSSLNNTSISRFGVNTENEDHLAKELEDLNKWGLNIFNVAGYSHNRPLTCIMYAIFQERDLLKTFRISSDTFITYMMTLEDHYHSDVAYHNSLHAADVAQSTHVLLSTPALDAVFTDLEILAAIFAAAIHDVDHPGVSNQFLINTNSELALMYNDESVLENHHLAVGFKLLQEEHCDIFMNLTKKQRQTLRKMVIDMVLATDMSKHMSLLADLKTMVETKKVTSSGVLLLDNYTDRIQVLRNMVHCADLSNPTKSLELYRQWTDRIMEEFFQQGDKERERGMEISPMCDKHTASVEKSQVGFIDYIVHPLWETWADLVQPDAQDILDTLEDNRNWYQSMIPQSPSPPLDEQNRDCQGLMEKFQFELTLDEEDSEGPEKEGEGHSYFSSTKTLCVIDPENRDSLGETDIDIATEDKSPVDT
Chain of yeast PDE2 (P06776 whole entry): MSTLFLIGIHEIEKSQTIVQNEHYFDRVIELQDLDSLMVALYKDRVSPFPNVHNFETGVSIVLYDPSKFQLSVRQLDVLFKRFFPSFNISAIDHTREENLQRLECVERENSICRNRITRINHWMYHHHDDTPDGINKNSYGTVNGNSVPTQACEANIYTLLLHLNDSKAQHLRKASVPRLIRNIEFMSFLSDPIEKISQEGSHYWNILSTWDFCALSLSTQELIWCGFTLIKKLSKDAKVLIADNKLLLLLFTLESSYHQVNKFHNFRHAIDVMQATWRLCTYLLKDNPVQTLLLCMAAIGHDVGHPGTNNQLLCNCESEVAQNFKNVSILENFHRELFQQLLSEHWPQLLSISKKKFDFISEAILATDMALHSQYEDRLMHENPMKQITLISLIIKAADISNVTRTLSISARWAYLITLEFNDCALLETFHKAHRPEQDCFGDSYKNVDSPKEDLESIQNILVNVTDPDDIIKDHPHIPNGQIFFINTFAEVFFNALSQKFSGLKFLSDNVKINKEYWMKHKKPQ
Description for yeast PDE2: as §4

`CN(C(=O)CCCOc1ccc2[nH]c(=O)ccc2c1)C1CCCCC1` [Cilostamide]: the IC50 in [1] was over 1000 µM; in [2] (read-out: IC50), over 1000 µM; in assay [4], 140 µM; in [5], 55 µM; in assay [6], 90 µM. In [3], the “IC50s fold higher than for their specific PDE classes” value (“IC50s fold higher than” for short) was 10 to 1000 fold.
Consider `Nc1nc2c(ncn2[C@@H]2O[C@@H]3COP(=O)(O)O[C@H]3[C@H]2O)c(=O)[nH]1` [cGMP], for which the IC50 (in [1]; in assay [2] (read-out: IC50); in assay [4]; in [5]; in assay [6]; against DPDE4 (plasmid pADH72C) [8]) was over 1000 µM each time. In addition, the “inhibition of cAMP phosphodiesterase activity by cGMP” value in [7] is “did not inhibit”. Moreover, the EC50 in [9] and in assay [10] was over 300 µM in each case.
Consider `COc1ccc(C2CNC(=O)C2)cc1OC1CCCC1` (centres unmarked) [Rolipram], for which, in assay [11], the “inhibition of rat DPD enzymatic activity (in words)” value was “readily inhibited; also recorded: most effective inhibitors”. Besides, the “sensitivity to heat shock (in words)” value in assay [12] is listed as “much more sensitive to heat shock”. In addition, the “heat shock phenotype (in words)” value in assay [13] was “become heat shock sensitive again”. Besides, the IC50 in assay [1] is over 1000 µM; in assay [2], over 740 µM; in assay [3], 0.2 to 0.5 µM; in assay [14], 1000 µM; in assay [4], 0.5 µM; in assay [5], […]. Besides, the IC50 in assay [6] stood at 0.18 µM. In assay [15], the “sensitivity of the cAMP phosphodiesterases to the agent (in words)” value is “sensitive”. Also, the “cells remaining viable out of approximately 150,000 cells” value in [16] (100 μM) is “less than 10 cells”. In addition, the “effect on viable cells of the culture after heat treatment (in words)” value in [16] is “reduced the number of viable cells”. In addition, the EC50 in assay [9] was […]; in assay [10], over 300 µM.
In the case of `CCCCOc1cc(CC2CNC(=O)N2)ccc1OC` (centres unmarked) [RO 20-1724], testing at 0.1 µM in assay [11] gave an inhibition of 35%. In assay [11], this compound showed an inhibition at 1 µM of 52%. Further, the inhibition at 10 µM in [11] was found to be 79%. Further, the results for the inhibition at 100 µM (in assay [11]; on yeast PDE2) were 92% and 3%, respectively. Moreover, the “inhibition of rat DPD enzymatic activity (in words)” value in [11] (listed as R020 1724) is “readily inhibited; also recorded: most effective inhibitors”. Moreover, the IC50 is 1 to 10 µM in assay [3] and 1000 µM in [14]. Further, the values for the EC50 in [9] and in assay [10] were 3 µM and over 300 µM, respectively.
`CC(C)Cn1c(=O)n(C)c(=O)c2[nH]cnc21` [IBMX]: the inhibition at 250 µM was 87% in [11] and 0% at yeast PDE2. Also, the IC50 in [1] came to 11 µM; in assay [2] (read-out: IC50) it was 12 µM; in assay [4] it was 9.3 µM; in assay [5] it was 15 µM; in [6], 10 µM; on DPDE4 (plasmid pADH72C) [8], 11 µM. For the same compound, the “inhibition of the human dunce-like PDEs (in words)” value in assay [3] (no detectable difference in IC50 between clones) is reported as “inhibited”.
As for `Cn1c(=O)c2[nH]cnc2n(C)c1=O` [Theophylline], the EC50 in assay [9] is 300 µM.
As to `Cc1[nH]c(=O)c(C#N)cc1-c1ccncc1` [Milrinone], the IC50 in [1] is over 1000 µM; in [2] (read-out: IC50), over 1000 µM; in assay [4], 59 µM; in [6], 16 µM. The “effect on viable cells of the culture after heat treatment (in words)” value in assay [16] was “no observable effect”. The EC50 in assay [9] and in assay [10] was 30 µM throughout.
Regarding `CCCOc1ccccc1-c1nc2nn[nH]c2c(=O)[nH]1` [Zaprinast], the IC50 in assay [1] is 130 µM; in assay [2] (read-out: IC50), 58 µM; in assay [4] it was 120 µM; in [5], 90 µM; in assay [6], 88 µM. For the same compound, the “IC50s fold higher than” value in [3] was in the range of 10 to 1000 fold.
With `COCc1nc2c([nH]1)c(=O)n(C)c(=O)n2CC(C)C` [8-Methoxy IBMX], the IC50 in assay [1] came to 120 µM; in assay [2] (pADDR, 1 μM 3H cAMP, SD in parentheses, read-out: IC50), 170 µM; in assay [4], 220 µM; in [5], 220 µM; on DPDE4 (plasmid pADH72C) [17] it was 190 µM; in assay [6], 160 µM. Moreover, the “IC50s fold higher than” value in [3] is given as 10 to 1000 fold.
Regarding `CCCCn1c(=O)c2c(ncn2CC(C)=O)n(CCCC)c1=O` [Denbufylline], the IC50 in [1] was 1.5 µM; in assay [2] (read-out: IC50), 3 µM; in assay [3], 1 to 10 µM; in [14] it was 1 to 3 µM; in assay [4] it was 0.22 µM; in assay [5], 0.2 µM. For the same compound, the IC50 in assay [6] came out at 0.1 µM.

As a reminder, the inhibition is the percentage by which the read-out fell short of the control. Read a high inhibition as a strong effect.
